Values quoted from earlier work, collected in patent US20260167972A1, “AMINO ACID DERIVATIVES AS NOVEL DELIVERY AGENTS FOR FUNCTIONAL DELIVERY OF OLIGONUCLEOTIDES” (University of Rochester, priority 2022, published 2026).
Entries after “also recorded” stand apart in the source; their conditions may differ.

Test system: human A549 lung adenocarincoma cells
Conditions: cyclic peptide complexed with Rh-siRNA; compared with naked Rh-siRNA; cited from earlier work

## Ac-C(FKFE)2CG-NH2
  Rh-siRNA cellular/cytosolic delivery: improved Rh-siRNA cellular delivery compared with naked Rh-siRNA

## Ac-C(WR)4CG-NH2
  Rh-siRNA cellular/cytosolic delivery: improved Rh-siRNA cellular delivery compared with naked Rh-siRNA; also recorded: significantly enhanced cytosolic delivery of Rh-siRNA
